The test deals with T1, human Bradykinin B1 receptor (Homo sapiens, UniProt P46663).
T1 construct: host or cells: CHO-K1
T1 sequence (P46663 1-353): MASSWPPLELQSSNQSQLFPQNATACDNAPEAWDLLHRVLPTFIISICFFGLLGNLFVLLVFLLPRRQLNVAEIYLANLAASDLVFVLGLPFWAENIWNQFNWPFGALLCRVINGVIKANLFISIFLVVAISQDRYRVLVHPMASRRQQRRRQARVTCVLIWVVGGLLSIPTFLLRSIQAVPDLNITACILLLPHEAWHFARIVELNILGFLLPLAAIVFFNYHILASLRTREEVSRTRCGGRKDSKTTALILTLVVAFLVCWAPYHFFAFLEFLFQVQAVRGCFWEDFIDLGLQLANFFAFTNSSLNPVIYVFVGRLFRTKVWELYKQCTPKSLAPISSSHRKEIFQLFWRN
Briefly: Calcium flux Assay (FLIPR) with recombinant CHO-K1 cells expressing human Bradykinin B1 receptor, in presence (hB1 IC50) or absence (hB1 free IC50) of 0.1% BSA. The class given is cell-based. (In general: Calcium flux is commonly read through the fluorescence of an indicator in the cells.)

Setting [1] is: in absence of 0.1% BSA, read-out: hB1 free IC50.
The mark [2] stands for this setting: in presence of 0.1% BSA, read-out: hB1 IC50.

IC50 data for 32 compounds are collected here from patent US20210317092A1 (BAYER PHARMA AKTIENGESELLSCHAFT, priority 2016, published 2021).

Read-outs that look alike come from different tables or passages of the source.

`O=C(Nc1ccc(-c2ccnc(C(F)(F)F)c2)c(-c2nnn[nH]2)c1)C1(c2ccc(F)cn2)CC1` [Example 174, 1-(5-fluoropyridin-2-yl)-N-{3-(1H-tetrazol-5-yl)-4-[2-(trifluoromethyl)pyridin-4-yl]phenyl} cyclopropane-carboxamide]: the IC50 (as a rule, the concentration at which inhibition is half-maximal) under setting [1] is 1110 nM.

Consider `CCC1CCN(c2ccc(NC(=O)C3(c4cccc(Cl)c4)CC3)cc2-c2nnn[nH]2)C1=O` (stereo not shown) [Example 405, 1-(3-chlorophenyl)-N-[4-(3-ethyl-2-oxopyrrolidin-1-yl)-3-(1H-tetrazol-5-yl)phenyl]cyclopro-panecarboxa-mide], for which the IC50 under setting [1] was 1390 nM.

Consider `COc1ncc(-c2ccc(NC(=O)C3(c4cccc(Cl)c4)CC3)cc2-c2nnn[nH]2)cn1` [Example 333, 1-(3-chlorophenyl)-N-[4-(2-methoxypyrimidin-5-yl)-3-(1H-tetrazol-5-yl)phenyl]cyclopro-panecarboxa-mide], for which, under setting [2], the IC50 is 420 nM.

Turning to `COc1ccc(-c2ccc(NC(=O)C3(c4ccccn4)CC3)cc2-c2nnn[nH]2)cc1OC` [Example 9], the IC50 under setting [2] was 660 nM.

As for `COc1cc(F)cc(C2(C(=O)Nc3ccc(-c4ccc(OC)c(OC)c4)c(-c4nnn[nH]4)c3)CC2)c1` [Example 32], under setting [2], the IC50 was determined as 41.6 nM.

`O=C(Nc1ccc(-c2ccnc(C(F)(F)F)c2)c(-c2nnn[nH]2)c1)C1(c2cc(F)ccc2F)CC1` [Example 179]: the IC50 under setting [1] was 393 nM.

Regarding `CCOc1cncc(-c2ccc(NC(=O)C3(c4cccc(C(F)(F)F)c4)CC3)cc2-c2nnn[nH]2)c1` [Example 155, N-[4-(5-ethoxypyridin-3-yl)-3-(1H-tetrazol-5-yl)phenyl]-1-[3-(trifluoromethyl)phenyl] cyclopropane-carboxamide], the IC50 under setting [2] turned out to be 220 nM.

As for `CCOc1ccc(-c2ccc(NC(=O)C3(c4ccc(Cl)nc4)CC3)cc2-c2nnn[nH]2)cn1` [Example 108, 1-(6-chloropyridin-3-yl)-N-[4-(6-ethoxypyridin-3-yl)-3-(1H-tetrazol-5-yl)phenyl] cyclopropane-carboxamide], under setting [2], the IC50 is 338 nM.

For `O=C(Nc1ccc(-c2cnc(NC3CC3)nc2)c(-c2nnn[nH]2)c1)C1(c2cccc(Cl)c2)CC1` [Example 185], the IC50 under setting [1] turned out to be 251 nM.

For `COc1ccc(-c2ccc(NC(=O)C(C)(C)c3cccc(Cl)c3)cc2-c2nnn[nH]2)cc1OC` [Example 61, 2-(3-chlorophenyl)-N-[3′,4′-dimethoxy-2-(1H-tetrazol-5-yl)biphenyl-4-yl]-2-methyl-propanamide], the IC50 under setting [2] was 2050 nM.

Consider `CC(C)(C)c1cn(-c2ccc(NC(=O)C3(c4ccc(F)c(F)c4)CC3)cc2-c2nnn[nH]2)cn1` [Example 401, N-[4-(4-tert-butyl-1H-imidazol-1-yl)-3-(1H-tetrazol-5-yl)phenyl]-1-(3,4-difluorophenyl)cy-clopropanecar-boxamide], for which the IC50 under setting [1] worked out at 34.5 nM.

With `COc1ccc(-c2ccc(NC(=O)C3(Cc4ccccc4)CC3)cc2-c2nnn[nH]2)cc1OC` [Example 53, 1-benzyl-N-[3′,4′-dimethoxy-2-(1H-tetrazol-5-yl)biphenyl-4-yl]cyclopropane carboxamide], under setting [2], the half-inhibitory concentration (IC50) came to 514 nM.

As to `O=C(Nc1cc(Cl)c(-c2ccc(C(F)(F)F)nc2)c(-c2nnn[nH]2)c1)C1(c2cccc(Cl)c2)CC1` [Example 302, 1-(3-chlorophenyl)-N-{3-chloro-5-(1H-tetrazol-5-yl)-4-[6-(trifluoromethyl)pyridin-3-yl]phenyl}cyclopro-panecarboxa-mide], the IC50 under setting [1] was found to be 44 nM.

As for `O=C(Nc1ccc(-c2cnc(C(F)(F)F)nc2)c(-c2nnn[nH]2)c1)C1(c2ccc(C(F)(F)F)cc2)CC1` [Example 205, N-{3-(1H-tetrazol-5-yl)-4-[2-(trifluoromethyl)pyrimidin-5-yl]phenyl)-1-[4-(trifluoromethyl)phenyl] cyclopropane-carboxamide], the IC50 under setting [1] came out at 170 nM.

Regarding `CCCc1cccc(C2(C(=O)Nc3ccc(-c4ccc(OC)c(OC)c4)c(-c4nnn[nH]4)c3)CC2)c1` [Example 41, N-[3′,4′-dimethoxy-2-(1H-tetrazol-5-yl)biphenyl-4-yl]-1-(3-propylpheny) cyclopropane-carboxamide], the IC50 under setting [2] was found to be 92 nM.

Consider `CCOc1ccc(-c2ccc(NC(=O)C3(c4cc(F)cc(F)c4)CC3)cc2-c2nnn[nH]2)cn1` [Example 84, 1-(3,5-difluorophenyl)-N-[4-(6-ethoxypyridin-3-yl)-3-(1H-tetrazol-5-yl)phenyl] cyclopropane-carboxamide], for which the IC50 reads like this: under setting [1], 19 nM; under setting [2], 41.8 nM.

Turning to `COc1ccc(-c2ccc(NC(=O)C3(c4cccc(Cl)c4)CC3)cc2-c2nnn[nH]2)cc1Cl` [Example 117, N-[3′-chloro-4′-methoxy-2-(1H-tetrazol-5-yl)biphenyl-4-yl]-1-(3-chlorophenyl) cyclopropane-carboxamide], the IC50 under setting [2] came out at 448 nM.

Turning to `COc1ccc(-c2ccc(NC(=O)C3(c4ccc(F)cc4)CC3(C)C)cc2-c2nnn[nH]2)cc1OC` (stereo not shown) [Example 6], the IC50 under setting [2] came out at 1370 nM.

In the case of `COc1ccc(-c2ccc(NC(=O)C3(c4ccccc4OC(F)(F)F)CC3)cc2-c2nnn[nH]2)cc1OC` [Example 4, N-[3′,4′-dimethoxy-2-(1H-tetrazol-5-yl)biphenyl-4-yl]-1-[2-(trifluoro-methoxy)phenyl] cyclopropane-carboxamide], under setting [2], the IC50 is 158 nM.

Take `COc1ccc(-c2ccc(NC(=O)C3(c4cccc(F)c4F)CC3)cc2-c2nnn[nH]2)cc1OC` [Example 26, 1-(2,3-difluorophenyl)-N-[3′,4′-dimethoxy-2-(1H-tetrazol-5-yl)biphenyl-4-yl]cyclopropane carboxamide]: the IC50 under setting [2] turned out to be 91.7 nM.

For the compound `COc1ccc(-c2ccc(NC(=O)C3(c4ccc(OC(F)(F)F)cc4)CC3)cc2-c2nnn[nH]2)cc1OC` [Example 19, N-[3′,4′-dimethoxy-2-(1H-tetrazol-5-yl)biphenyl-4-yl]-1-[4-(trifluoromethoxy)phenyl] cyclopropane-carboxamide], under setting [2], the IC50 came out at 42.9 nM.

As to `CCOc1ncc(-c2ccc(NC(=O)C3(c4ccc(C(F)(F)F)cc4)CC3)cc2-c2nnn[nH]2)cc1F` [Example 164, N-[4-(6-ethoxy-5-fluoropyridin-3-yl)-3-(1H-tetrazol-5-yl)phenyl]-1-[4-(trifluoromethyl)phenyl] cyclopropane-carboxamide], the half-inhibitory concentration (IC50) under setting [2] stood at 14.5 nM.

For `COc1ccc(-c2ccc(NC(=O)C3(c4cccc(Cl)c4)CC3)cc2-c2nnn[nH]2)cc1` [Example 314, 1-(3-chlorophenyl)-N-[4′-methoxy-2-(1H-tetrazol-5-yl)biphenyl-4-yl]cyclopropane-carboxamide], the IC50 under setting [2] is 340 nM.

As to `CCOc1ccc(-c2cc(F)c(NC(=O)C3(c4cccc(Cl)c4)CC3)cc2-c2nnn[nH]2)cn1` [Example 342, 1-(3-chlorophenyl)-N-[4-(6-ethoxypyridin-3-yl)-2-fluoro-5-(1H-tetrazol-5-yl)phenyl]cyclopro-panecarboxa-mide], the IC50 under setting [2] was found to be 1770 nM.

Turning to `CCC(F)(F)c1ccc(-c2ccc(NC(=O)C3(c4ccc(OC(F)(F)F)cc4F)CC3)cc2-c2nnn[nH]2)cn1` [Example 287, N-{4-[6-(1,1-difluoropropyl)py-ridin-3-yl]-3-(1H-tetrazol-5-yl)phenyl}-1-[2-fluoro-4-(trifluoromethoxy)phenyl]cyclo-propanecarboxa-mide], the IC50 under setting [1] worked out at 3.93 nM.

With `COc1ccc(-c2ccc(NC(=O)C3(c4cccc(C)c4)CC3)cc2-c2nnn[nH]2)cc1OC` [Example 39, N-[3′,4′-dimethoxy-2-(1H-tetrazol-5-yl)biphenyl-4-yl]-1-(3-methylphenyl) cyclopropane-carboxamide], the IC50 under setting [2] was 80.3 nM.

On to `COc1ccc(-c2ccc(NC(=O)C3(c4ccc(F)c(Cl)c4)CC3)cc2-c2nnn[nH]2)cc1OC` [Example 14, 1-(3-chloro-4-fluorophenyl)-N-[3′,4′-dimethoxy-2-(1H-tetrazol-5-yl)biphenyl-4-yl]cyclopropane carboxamide], for which the IC50 under setting [2] is 101 nM.

For `O=C(Nc1ccc(-n2cc(C(F)(F)F)nn2)c(-c2nnn[nH]2)c1)C1(c2ccc(C(F)(F)F)cc2F)CC1` [Example 361, 1-[2-fluoro-4-(trifluoromethyl)phenyl]-N-{3-(1H-tetrazol-5-yl)-4-[4-(trifluoromethyl)-1H-1,2,3-triazol-1-yl]phenyl}cyclopro-panecarboxa-mide], under setting [1], the IC50 is 419 nM.

For the compound `O=C(Nc1ccc(-c2ccnc(F)c2)c(-c2nnn[nH]2)c1)C1(c2cccc(Cl)c2)CC1` [Example 182, 1-(3-chlorophenyl)-N-[4-(2-fluoropyridin-4-yl)-3-(1H-tetrazol-5-yl)phenyl] cyclopropane-carboxamide], the IC50 is 185 nM under setting [1] and 1350 nM under setting [2].

Turning to `O=C(Nc1ccc(-n2cc(C(F)(F)F)cn2)c(-c2nnn[nH]2)c1)C1(c2ccc(OC(F)(F)F)cc2F)CC1` [Example 364, 1-[2-fluoro-4-(trifluoromethoxy)phenyl]-N-{3-(1H-tetrazol-5-yl)-4-[4-(trifluoromethyl)-1H-pyrazol-1-yl]phenyl}cyclopro-panecarboxa-mide], under setting [1], the IC50 came out at 12.7 nM.

With `COc1ccc(-c2ccc(NC(=O)C3(c4ccc(C)cc4)CC3(C)C)cc2-c2nnn[nH]2)cc1OC` (stereo not shown) [Example 5, N-[3′,4′-dimethoxy-2-(1H-tetrazol-5-yl)biphenyl-4-yl]-2,2-dimethyl-1-(4-methylpheny) cyclopropane carboxamide], the IC50 under setting [2] was found to be 1510 nM.

As to `COc1ccc(-c2c(F)cc(NC(=O)C3(c4ccc(F)cc4F)CC3)cc2-c2nnn[nH]2)cc1OC` [Example 235, 1-(2,4-Difluorophenyl)-N-[2-fluoro-3′,4′-dimethoxy-6-(1H-tetrazol-5-yl)biphenyl-4-yl]cyclopropane carboxamide], the IC50 under setting [2] was determined as 53.6 nM.
